One test relates to tumor endothelial cells (LL/2 lung cancer tumor). Put plainly: Lung LL2 ex vivo model of tumor angiogenesis. Format: cell-based, mouse. Particulars: Lung LL2 ex vivo; Conc. 40 μm; drug treatment two days. The protocol:
This example describes a procedure to prepare a primary tumor angiogenesis model for assessing the efficacy of anti-cancer candidate agents.
1. The day before the experiment, spray all necessary tools with 70% ethanol and sterilize them under UV light overnight, including blade, dissecting and micro-dissecting scissors and […]. Place 24-well dishes at 4° C. to pre-chill plates and thaw Matrigel 24 hours before tumor dissection.
2. Spray 70% ethanol on working bench. Prepare two sterile petri dishes with 10 mL sterile PBS. Steps 3 and 4 are for mouse tumor models. For fresh human tumor, directly go to step 5.
3. Euthanize the tumor-bearing mice. Spray 70% ethanol on the mouse and remove the tumor using sterilized dissecting tools (avoid the fur). Rinse the tumor in petri dish with sterile PBS to remove ethanol and fur. Transfer the tumor to a new petri dish with PBS for dissection. Place the dish on ice.
4. Using pre-chilled sterile pipet tips to seed regular Matrigel in 24 well plates on ice. Matrigel (30 μL) is dropped in the middle of each well without touching the edge of the well (avoid introducing bubbles if possible).
5. Cut the tumor in halves using the sterile blade. Identify and isolate healthy tumor tissue that is not necrotic and is within the tumor capsule. Cut the healthy tumor tissue into small pieces. For instance, a suitable size for the tumor tissue is 0.5 mm (H)×0.5 mm (L)×0.3 mm (D) with a total volume of 0.075 mm^3.
6. Gently transfer and embed each tumor piece in the Matrigel drop in the 24-well plate. Place the embedded piece in the bottom and middle of each Matrigel drop. Keep the plate on ice all the time.
7. After seeding the tumor pieces, plates are incubated in a 37° C. cell culture incubator without medium for 10 minutes in order for the Matrigel to solidify.
8. Endothelial Growth Medium (0.5 mL) is added to each well and incubated at 37° C. with 5% CO2. Wait until the new endothelial cells have grown out of the tumor or are larger than 3 mm in diameter until treatment. This usually takes 4 days for the LL2 Lewis lung cancer model and 7 days for the CT26 colon cancer model. For human tumor models, the growth time is typically 2-3 weeks, depending on the tumor type. Media is changed every 4 days during prolonged culture. Typically, when the tumor tissue grows to 2 mm in diameter, it is good for drug testing. A size of about 3 mm in diameter can make visualization easier.
9. When the assay is ready to be analyzed for cell death (e.g., 48 hours after drug addition), prepare the dye mixture by mixing 6 μL of green dye to stain live cells (5 mg/mL Fluorescein diacetate or FDA in DMSO) with 30 μL of red dye (2.5 mg/mL Propidium iodide or PI in PBS) to stain dead cells in an Eppendorf tube. The FDA dye needs to be stored frozen in a −20° C. freezer because it has a labile ester bond.
10. Add 1 μL of the dye mixture to each well of the 24-well dish. It is usually performed one 24-well dish at a time given the amount of time needed to take pictures (the green dye is not as stable in the cells in the long term).
11. Gently rock the dish a few times to mix the dye with the media in the wells and incubate the dish at 37° C. for 10 min (too long incubation can make the green signal too intense).
12. Wash each well with 0.5 mL of sterile PBS and then add 0.5 mL of phenol red free SFM to each well. Alternatively 0.5 mL of regular Endothelial Cell Growth Media can be added to each well if this well needs to be continuously maintained after the experiment.
13. Look through all wells on an inverted microscope using the 2× objective lens to observe morphological changes.
14. Taking pictures in the red and green channels would allow not only the recording of the result but also more accurate quantitation of the result. To take pictures for all the wells, first pick a well that has robust red and green signals. […]
`CCCCOc1ccc(S(=O)(=O)c2cnc3ccc(C(=O)NC4C(O)O[C@H](CO)[C@@H](O)[C@@H]4O)cc3c2N2CCCN(C)CC2)cc1` (stereo partly drawn) [compound 193, 3-((4-butoxyphenyl)sulfonyl)-4-(4-methyl-1,4-diazepan-1-yl)-N-((4R,5S,6R)-2,4,5-trihydroxy-6-(hydroxymethyl)tetrahydro-2H-pyran-3-yl)quinoline-6-carboxamide]: the Cell death came out at 30%.
`CCCCOc1ccc(S(=O)(=O)c2cnc3ccc(C(=O)NCCO)cc3c2N2CCCN(C)CC2)cc1` [compound 200, 3-((4-butoxyphenyl)sulfonyl)-N-(2-hydroxyethyl)-4-(4-methyl-1,4-diazepan-1-yl)quinoline-6-carboxamide] showed a Cell death of 30%.

The same test, now with this note: Mus musculus, Endothelial cell, 48 h, read-out: Cell death.
Consider `CCCCOc1ccc(S(=O)(=O)c2cnc3ccc(S(C)(=O)=O)cc3c2N2CCC(N3CCCCC3)CC2)cc1` [compound 169, 4-([1,4′-bipiperidin]-1′-yl)-3-((4-butoxyphenyl)sulfonyl)-6-(methylsulfonyl)quinoline], for which the cytotoxicity at 20 µM is 40%.
On to `CCCCOc1ccc(S(=O)(=O)c2cnc3ccc(S(C)(=O)=O)cc3c2N2CCC(N3CCC(O)CC3)CC2)cc1` [compound 170, 1′-(3-((4-butoxyphenyl)sulfonyl)-6-(methylsulfonyl)quinolin-4-yl)-[1,4′-bipiperidin]-4-ol], for which the cytotoxicity at 20 µM is 10%.
For `CCOC(=O)c1ccc2ncc(S(=O)(=O)c3ccc(OC)cc3)c(N3CCC(N4CCN(C)CC4)CC3)c2c1` [compound 171, ethyl 3-((4-methoxyphenyl)sulfonyl)-4-(4-(4-methylpiperazin-1-yl)piperidin-1-yl)quinoline-6-carboxylate], the cytotoxicity at 40 µM worked out at 40%.
On the same count and under the same terms, for `CCCCOc1ccc(S(=O)(=O)c2cnc3ccc(C(=O)OCC)cc3c2N2CCC(N3CCN(C)CC3)CC2)cc1` [compound 172, ethyl 3-((4-butoxyphenyl)sulfonyl)-4-(4-(4-methylpiperazin-1-yl)piperidin-1-yl)quinoline-6-carboxylate] the value was 100%; for `CCOC(=O)c1ccc2ncc(S(=O)(=O)c3ccc(OC)cc3)c(N3CCC(N4CCCCCC4)CC3)c2c1` [compound 173, ethyl 4-(4-(azepan-1-yl)piperidin-1-yl)-3-((4-methoxyphenyl)sulfonyl)quinoline-6-carboxylate], 50%.
As to `CCOC(=O)c1ccc2ncc(S(=O)(=O)c3ccc(OC)cc3)c(N3CCC(N4CCCC(O)C4)CC3)c2c1` (stereo not shown) [compound 174, ethyl 4-(3-hydroxy-[1,4′-bipiperidin]-1′-yl)-3-((4-methoxyphenyl)sulfonyl)quinoline-6-carboxylate], the cytotoxicity at 40 µM was 30%.
In the case of `CCOC(=O)c1ccc2ncc(S(=O)(=O)c3ccc(OC)cc3)c(N3CCC(N4CCC(CO)CC4)CC3)c2c1` [compound 175, ethyl 4-(4-(hydroxymethyl)-[1,4′-bipiperidin]-1′-yl)-3-((4-methoxyphenyl)sulfonyl)quinoline-6-carboxylate], the cytotoxicity at 40 µM came out at 30%.
On the same count and under the same terms, for `CCCCOc1ccc(S(=O)(=O)c2cnc3ccc(C(=O)OCC)cc3c2N2CCC(N3CCCCCC3)CC2)cc1` [compound 176, ethyl 4-(4-(azepan-1-yl)piperidin-1-yl)-3-((4-butoxyphenyl)sulfonyl)quinoline-6-carboxylate] the value was 100%.
On to `CCCCOc1ccc(S(=O)(=O)c2cnc3ccc(C(=O)OCC)cc3c2N2CCC(N3CCCC(O)C3)CC2)cc1` (stereo not shown) [compound 177, ethyl 3-((4-butoxyphenyl)sulfonyl)-4-(3-hydroxy-[1,4′-bipiperidin]-1′-yl)quinoline-6-carboxylate], for which the cytotoxicity at 40 µM stood at 100%.
For the molecule `CCCCOc1ccc(S(=O)(=O)c2cnc3ccc(C(=O)OCC)cc3c2N2CCC(N3CCC(CO)CC3)CC2)cc1` [compound 178, ethyl 3-((4-butoxyphenyl)sulfonyl)-4-(4-(hydroxymethyl)-[1,4′-bipiperidin]-1′-yl)quinoline-6-carboxylate], the cytotoxicity at 40 µM stood at 100%.
For the molecule `CCOC(=O)c1ccc2ncc(S(=O)(=O)c3ccc(OC)cc3)c(N3CCCN(CCN4CCCCC4)CC3)c2c1` [compound 179, ethyl 3-((4-methoxyphenyl)sulfonyl)-4-(4-(2-(piperidin-1-yl)ethyl)-1,4-diazepan-1-yl)quinoline-6-carboxylate], the cytotoxicity at 10 µM amounted to 60%.
Still for that read-out and setting: for `CCOC(=O)c1ccc2ncc(S(=O)(=O)c3ccc(OC)cc3)c(N3CCCN(CCN4CCCC4)CC3)c2c1` [compound 180, ethyl 3-((4-methoxyphenyl)sulfonyl)-4-(4-(2-(pyrrolidin-1-yl)ethyl)-1,4-diazepan-1-yl)quinoline-6-carboxylate] the value was 70%.
In the case of `CCCCOc1ccc(S(=O)(=O)c2cnc3ccc(C(=O)OCC)cc3c2N2CCCN(CCN3CCCCC3)CC2)cc1` [compound 181, ethyl 3-((4-butoxyphenyl)sulfonyl)-4-(4-(2-(piperidin-1-yl)ethyl)-1,4-diazepan-1-yl)quinoline-6-carboxylate], the cytotoxicity at 40 µM came out at 100%.
For `CCCCOc1ccc(S(=O)(=O)c2cnc3ccc(C(=O)OCC)cc3c2N2CCCN(CCN3CCCC3)CC2)cc1` [compound 182, ethyl 3-((4-butoxyphenyl)sulfonyl)-4-(4-(2-(pyrrolidin-1-yl)ethyl)-1,4-diazepan-1-yl)quinoline-6-carboxylate], the cytotoxicity at 40 µM was determined as 100%.
As for `CCOC(=O)c1ccc2ncc(S(=O)(=O)c3ccc(OC)cc3)c(-n3cncn3)c2c1` [compound 183, ethyl 3-((4-methoxyphenyl)sulfonyl)-4-(1H-1,2,4-triazol-1-yl)quinoline-6-carboxylate], the cytotoxicity at 10 µM was determined as 100%.
Take `CCOC(=O)c1ccc2ncc(S(=O)(=O)c3ccc(OC)cc3)c(-n3ccnn3)c2c1` [compound 184, ethyl 3-((4-methoxyphenyl)sulfonyl)-4-(1H-1,2,3-triazol-1-yl)quinoline-6-carboxylate]: the cytotoxicity at 10 µM came out at 5%.
As for `CCOC(=O)c1ccc2ncc(S(=O)(=O)c3ccc(OC)cc3)c(-n3cnnn3)c2c1` [compound 185, ethyl 3-((4-methoxyphenyl)sulfonyl)-4-(1H-tetrazol-1-yl)quinoline-6-carboxylate], the cytotoxicity at 10 µM worked out at 30%.
Take `CCCCOc1ccc(S(=O)(=O)c2cnc3ccc(C(=O)OCC)cc3c2-n2cnnn2)cc1` [compound 186, ethyl 3-((4-butoxyphenyl)sulfonyl)-4-(1H-tetrazol-1-yl)quinoline-6-carboxylate]: the cytotoxicity at 10 µM is 90%.
Regarding `CCCCOc1ccc(S(=O)(=O)c2cnc3ccc(OC(F)(F)F)cc3c2N2CCSCC2)cc1` [compound 187, 4-(3-((4-butoxyphenyl)sulfonyl)-6-(trifluoromethoxy)quinolin-4-yl)thiomorpholine], the cytotoxicity at 40 µM is 30%.
With `CCCCOc1ccc(S(=O)(=O)c2cnc3ccc(C(=O)OCC)cc3c2N2CCS(=O)(=O)CC2)cc1` [compound 196, ethyl 3-((4-butoxyphenyl)sulfonyl)-4-(1,1-dioxidothiomorpholino)quinoline-6-carboxylate], the cytotoxicity at 40 µM stood at 30%.
For the molecule `CCCCOc1ccc(S(=O)(=O)c2cnc3ccc(OC(F)(F)F)cc3c2N2CC[S+]([O-])CC2)cc1` [compound 197, 4-(3-((4-butoxyphenyl)sulfonyl)-6-(trifluoromethoxy)quinolin-4-yl)thiomorpholine 1-oxide], the cytotoxicity at 40 µM is 20%.
Same read-out and setting: for `CCCCOc1ccc(S(=O)(=O)c2cnc3ccc(OC(F)(F)F)cc3c2N2CCS(=O)(=O)CC2)cc1` [compound 198, 4-(3-((4-butoxyphenyl)sulfonyl)-6-(trifluoromethoxy)quinolin-4-yl)thiomorpholine 1,1-dioxide] the value was 30%.
On the same count and under the same terms, for `CCCCOc1ccc(S(=O)(=O)c2cnc3ccc(C(=O)N(CC)CC)cc3c2N2CCCN(C)CC2)cc1` [compound 199, 3-((4-butoxyphenyl)sulfonyl)-N,N-diethyl-4-(4-methyl-1,4-diazepan-1-yl)quinoline-6-carboxamide] the value was 30%.

These data come from US11884647B2, “Compounds and methods for targeting pathogenic blood vessels” (THE REGENTS OF THE UNIVERSITY OF CALIFORNIA, priority 2019, dated 2024).
